Source: article doi:10.1101/2023.10.20.563248v1 (biorxiv, 2023)

Legend:
Conditions in all cases: 1 µM; inhibitor
MST2 = MST2 (Homo sapiens, UniProt Q13188)
CDK6/CycD2 = CDK6/CycD2 (Homo sapiens, UniProt Q00534)
FES = FES (Homo sapiens, UniProt P07332)
BRSK2 = BRSK2 (Homo sapiens, UniProt Q8IWQ3)
EPHA5 = EPHA5 (Homo sapiens, UniProt P54756)
DAPK2 = DAPK2 (Homo sapiens, UniProt Q9UIK4)
WNK1 = WNK1 (Homo sapiens, UniProt Q9H4A3)
PKCd = PKCd (Homo sapiens, UniProt Q05655)
GSK3A = GSK3A (Homo sapiens, UniProt P49840)
ULK2 = ULK2 (Homo sapiens, UniProt Q8IYT8)
ZAK = ZAK (Homo sapiens, UniProt Q9NYL2)
FRK = FRK (Homo sapiens, UniProt P42685)
MARK4 = MARK4 (Homo sapiens, UniProt Q96L34)
MAP4K4 = MAP4K4 (Homo sapiens, UniProt O95819)
PKCg = PKCg (Homo sapiens, UniProt P05129)
CDK1/CycA2 = CDK1/CycA2 (Homo sapiens, UniProt P06493)
KIT = KIT (Homo sapiens, UniProt P10721)
FGFR1 = FGFR1 (Homo sapiens, UniProt P11362)
CAMK2D = CAMK2D (Homo sapiens, UniProt Q13557)
RPS6KA6 = RPS6KA6 (Homo sapiens, UniProt Q9UK32)
PKCt = PKCt (Homo sapiens, UniProt Q04759)
CDK17 = CDK17 (Homo sapiens, UniProt Q00537)
PRK1 = PRK1 (Homo sapiens, UniProt Q16512)
IRAK4 = IRAK4 (Homo sapiens, UniProt Q9NWZ3)
ITK = ITK (Homo sapiens, UniProt Q08881)
NEK9 = NEK9 (Homo sapiens, UniProt Q8TD19)
INSRR = INSRR (Homo sapiens, UniProt P14616)
MST1 = MST1 (Homo sapiens, UniProt Q13043)
GSK3B = GSK3B (Homo sapiens, UniProt P49841)
MATK = MATK (Homo sapiens, UniProt P42679)
MINK1 = MINK1 (Homo sapiens, UniProt Q8N4C8)
MINK1, sequence (Q8N4C8 whole entry): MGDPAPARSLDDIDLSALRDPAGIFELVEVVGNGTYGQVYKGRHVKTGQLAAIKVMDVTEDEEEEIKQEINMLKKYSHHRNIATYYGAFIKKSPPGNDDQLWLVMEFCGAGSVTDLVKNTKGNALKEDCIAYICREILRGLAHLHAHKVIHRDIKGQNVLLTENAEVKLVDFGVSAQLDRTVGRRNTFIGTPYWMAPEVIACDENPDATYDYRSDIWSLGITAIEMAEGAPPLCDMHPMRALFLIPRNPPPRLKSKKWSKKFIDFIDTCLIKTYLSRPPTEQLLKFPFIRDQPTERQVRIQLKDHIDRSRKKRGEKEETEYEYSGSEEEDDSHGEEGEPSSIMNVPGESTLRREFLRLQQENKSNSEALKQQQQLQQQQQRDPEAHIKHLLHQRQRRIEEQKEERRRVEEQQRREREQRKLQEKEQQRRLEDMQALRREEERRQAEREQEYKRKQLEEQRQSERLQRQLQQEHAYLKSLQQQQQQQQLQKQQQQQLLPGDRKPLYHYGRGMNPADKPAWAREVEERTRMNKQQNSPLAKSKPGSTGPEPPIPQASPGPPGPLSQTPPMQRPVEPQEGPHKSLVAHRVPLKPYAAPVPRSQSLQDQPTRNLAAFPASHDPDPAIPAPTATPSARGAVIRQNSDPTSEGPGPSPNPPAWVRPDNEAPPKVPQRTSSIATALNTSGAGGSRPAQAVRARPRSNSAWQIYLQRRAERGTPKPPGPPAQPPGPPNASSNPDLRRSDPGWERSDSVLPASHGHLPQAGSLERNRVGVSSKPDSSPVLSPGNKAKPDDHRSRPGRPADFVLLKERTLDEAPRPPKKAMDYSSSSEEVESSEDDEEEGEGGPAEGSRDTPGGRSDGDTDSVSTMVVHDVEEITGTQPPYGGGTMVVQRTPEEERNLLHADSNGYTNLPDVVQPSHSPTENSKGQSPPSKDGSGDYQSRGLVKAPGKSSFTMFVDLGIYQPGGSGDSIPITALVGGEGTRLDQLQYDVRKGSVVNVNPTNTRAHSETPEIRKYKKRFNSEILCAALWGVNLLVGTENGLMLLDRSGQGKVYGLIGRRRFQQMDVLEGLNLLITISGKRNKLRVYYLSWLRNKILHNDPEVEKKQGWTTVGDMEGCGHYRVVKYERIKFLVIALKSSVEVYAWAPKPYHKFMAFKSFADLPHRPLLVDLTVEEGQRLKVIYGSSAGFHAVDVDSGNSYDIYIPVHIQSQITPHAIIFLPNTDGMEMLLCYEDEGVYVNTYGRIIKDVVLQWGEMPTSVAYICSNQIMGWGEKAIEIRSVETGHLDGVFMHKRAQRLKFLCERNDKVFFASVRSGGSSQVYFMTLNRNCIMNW

INSRR, sequence (P14616 whole entry): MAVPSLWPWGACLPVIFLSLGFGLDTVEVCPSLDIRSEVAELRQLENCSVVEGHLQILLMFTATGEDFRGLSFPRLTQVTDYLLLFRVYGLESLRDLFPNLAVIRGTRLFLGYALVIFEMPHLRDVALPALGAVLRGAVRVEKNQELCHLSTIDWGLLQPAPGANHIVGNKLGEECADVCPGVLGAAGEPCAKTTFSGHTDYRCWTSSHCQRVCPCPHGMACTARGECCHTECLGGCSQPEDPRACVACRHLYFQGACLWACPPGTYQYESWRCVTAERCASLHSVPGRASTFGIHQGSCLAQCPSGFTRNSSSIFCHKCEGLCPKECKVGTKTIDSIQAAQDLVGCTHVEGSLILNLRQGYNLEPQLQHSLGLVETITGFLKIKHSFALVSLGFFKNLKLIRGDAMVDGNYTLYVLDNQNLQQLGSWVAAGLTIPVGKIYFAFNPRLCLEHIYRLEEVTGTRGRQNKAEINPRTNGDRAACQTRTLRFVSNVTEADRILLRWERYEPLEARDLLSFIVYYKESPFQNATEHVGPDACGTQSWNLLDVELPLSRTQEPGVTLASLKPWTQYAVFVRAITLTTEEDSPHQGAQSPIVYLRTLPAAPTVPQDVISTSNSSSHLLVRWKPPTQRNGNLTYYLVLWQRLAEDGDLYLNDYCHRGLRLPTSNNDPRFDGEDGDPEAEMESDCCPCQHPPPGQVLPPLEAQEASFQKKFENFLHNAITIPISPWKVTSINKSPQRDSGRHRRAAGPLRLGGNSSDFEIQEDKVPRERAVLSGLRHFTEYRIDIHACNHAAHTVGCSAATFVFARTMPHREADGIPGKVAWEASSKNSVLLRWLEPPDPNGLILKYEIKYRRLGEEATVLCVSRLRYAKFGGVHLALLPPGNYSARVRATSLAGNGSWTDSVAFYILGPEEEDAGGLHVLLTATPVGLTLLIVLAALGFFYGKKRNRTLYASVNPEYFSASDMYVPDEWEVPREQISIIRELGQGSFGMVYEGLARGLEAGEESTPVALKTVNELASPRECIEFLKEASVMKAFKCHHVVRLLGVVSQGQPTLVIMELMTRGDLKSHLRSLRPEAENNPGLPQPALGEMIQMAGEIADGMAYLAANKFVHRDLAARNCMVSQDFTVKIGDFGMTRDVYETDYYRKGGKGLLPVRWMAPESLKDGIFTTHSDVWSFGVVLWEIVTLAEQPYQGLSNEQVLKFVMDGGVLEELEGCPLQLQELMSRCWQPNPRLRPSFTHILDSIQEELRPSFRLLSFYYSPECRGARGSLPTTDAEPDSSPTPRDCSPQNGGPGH
CDK6/CycD2, sequence (Q00534 whole entry): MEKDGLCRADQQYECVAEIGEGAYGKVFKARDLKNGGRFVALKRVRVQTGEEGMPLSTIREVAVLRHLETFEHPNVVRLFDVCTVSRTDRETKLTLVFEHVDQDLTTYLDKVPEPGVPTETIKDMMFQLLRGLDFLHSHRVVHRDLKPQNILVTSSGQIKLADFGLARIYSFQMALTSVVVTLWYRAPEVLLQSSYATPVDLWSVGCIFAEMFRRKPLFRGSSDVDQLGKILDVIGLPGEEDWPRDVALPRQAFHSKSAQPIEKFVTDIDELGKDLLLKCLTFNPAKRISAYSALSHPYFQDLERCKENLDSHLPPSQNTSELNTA
CDK6/CycD2, sequence (P30279 whole entry partner): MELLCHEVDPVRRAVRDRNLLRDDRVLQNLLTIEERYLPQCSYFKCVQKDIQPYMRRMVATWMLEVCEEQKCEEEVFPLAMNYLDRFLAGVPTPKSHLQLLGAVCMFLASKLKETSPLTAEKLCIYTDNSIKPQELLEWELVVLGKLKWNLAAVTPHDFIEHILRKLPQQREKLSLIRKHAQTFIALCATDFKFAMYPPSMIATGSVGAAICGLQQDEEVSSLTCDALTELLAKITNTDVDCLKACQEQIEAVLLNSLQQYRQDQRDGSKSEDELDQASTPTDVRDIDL
MATK, sequence (P42679 whole entry): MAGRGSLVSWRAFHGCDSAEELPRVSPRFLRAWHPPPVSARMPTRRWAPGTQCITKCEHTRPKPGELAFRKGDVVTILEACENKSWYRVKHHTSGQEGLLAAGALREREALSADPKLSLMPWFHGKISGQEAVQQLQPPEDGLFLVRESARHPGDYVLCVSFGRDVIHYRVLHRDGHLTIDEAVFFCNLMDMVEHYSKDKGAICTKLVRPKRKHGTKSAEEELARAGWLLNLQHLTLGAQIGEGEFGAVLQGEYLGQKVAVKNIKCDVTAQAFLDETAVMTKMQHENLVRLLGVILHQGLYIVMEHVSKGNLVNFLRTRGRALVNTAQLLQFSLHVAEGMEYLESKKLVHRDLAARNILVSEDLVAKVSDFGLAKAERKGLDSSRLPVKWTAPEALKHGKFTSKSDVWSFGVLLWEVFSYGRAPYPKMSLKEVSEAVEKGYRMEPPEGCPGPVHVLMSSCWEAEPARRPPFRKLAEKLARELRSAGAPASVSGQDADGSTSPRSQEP
FES, sequence (P07332 whole entry): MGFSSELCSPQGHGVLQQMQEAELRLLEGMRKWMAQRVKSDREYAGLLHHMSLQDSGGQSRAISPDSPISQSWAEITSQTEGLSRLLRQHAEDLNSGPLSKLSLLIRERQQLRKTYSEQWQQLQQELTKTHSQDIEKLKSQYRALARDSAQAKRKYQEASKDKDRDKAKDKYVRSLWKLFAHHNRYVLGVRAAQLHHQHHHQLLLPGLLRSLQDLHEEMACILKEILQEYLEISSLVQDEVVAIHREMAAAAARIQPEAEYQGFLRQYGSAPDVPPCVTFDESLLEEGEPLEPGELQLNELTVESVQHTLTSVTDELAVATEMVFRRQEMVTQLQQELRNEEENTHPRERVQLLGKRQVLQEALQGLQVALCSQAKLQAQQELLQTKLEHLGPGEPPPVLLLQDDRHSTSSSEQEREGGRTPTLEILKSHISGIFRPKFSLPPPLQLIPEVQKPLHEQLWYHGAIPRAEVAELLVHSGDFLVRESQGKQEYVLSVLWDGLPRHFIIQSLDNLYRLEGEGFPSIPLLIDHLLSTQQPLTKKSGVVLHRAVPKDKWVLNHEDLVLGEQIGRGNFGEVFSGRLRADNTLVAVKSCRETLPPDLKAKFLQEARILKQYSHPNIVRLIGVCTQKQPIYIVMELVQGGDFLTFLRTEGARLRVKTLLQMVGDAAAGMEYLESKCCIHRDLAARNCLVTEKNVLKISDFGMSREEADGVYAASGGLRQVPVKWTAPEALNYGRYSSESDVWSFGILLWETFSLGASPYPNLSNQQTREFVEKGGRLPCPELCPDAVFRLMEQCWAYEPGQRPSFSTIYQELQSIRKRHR
MST2, sequence (Q13188 whole entry): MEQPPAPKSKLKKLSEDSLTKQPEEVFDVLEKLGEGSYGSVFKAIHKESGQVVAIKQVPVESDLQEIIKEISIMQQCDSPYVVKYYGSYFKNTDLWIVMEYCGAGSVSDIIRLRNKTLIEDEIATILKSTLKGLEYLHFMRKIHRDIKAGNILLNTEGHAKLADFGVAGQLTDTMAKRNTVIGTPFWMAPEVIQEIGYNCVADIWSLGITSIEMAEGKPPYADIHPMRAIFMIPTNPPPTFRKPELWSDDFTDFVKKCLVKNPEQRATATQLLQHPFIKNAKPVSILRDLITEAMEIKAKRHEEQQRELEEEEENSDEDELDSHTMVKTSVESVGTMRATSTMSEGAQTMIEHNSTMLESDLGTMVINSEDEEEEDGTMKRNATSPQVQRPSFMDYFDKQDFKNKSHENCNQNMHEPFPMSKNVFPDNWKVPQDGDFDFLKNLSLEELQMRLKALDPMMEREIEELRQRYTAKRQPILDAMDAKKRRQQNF

21c Remaining activity, percent of control [%] (MST2): 95.6%
21c Remaining activity, percent of control [%] (CDK6/CycD2): 85.8%
21c Remaining activity, percent of control [%] (FES): 100.7%
21c Remaining activity, percent of control [%] (BRSK2): 97.8%
21c Remaining activity, percent of control [%] (EPHA5): 98.4%
21c Remaining activity, percent of control [%] (DAPK2): 100.3%
21c Remaining activity, percent of control [%] (WNK1): 94.9%
21c Remaining activity, percent of control [%] (PKCd): 91.4%
21c Remaining activity, percent of control [%] (GSK3A): 67.3%
21c Remaining activity, percent of control [%] (ULK2): 96.0%
21c Remaining activity, percent of control [%] (ZAK): 82.9%
21c Remaining activity, percent of control [%] (FRK): 104.0%
21c Remaining activity, percent of control [%] (MARK4): 100.1%
21c Remaining activity, percent of control [%] (MAP4K4): 81.0%
21c Remaining activity, percent of control [%] (PKCg): 79.4%
21c Remaining activity, percent of control [%] (CDK1/CycA2): 91.9%
21c Remaining activity, percent of control [%] (KIT): 69.4%
21c Remaining activity, percent of control [%] (FGFR1): 80.9%
21c Remaining activity, percent of control [%] (CAMK2D): 95.0%
21c Remaining activity, percent of control [%] (RPS6KA6): 73.5%
21c Remaining activity, percent of control [%] (PKCt): 42.6%
21c Remaining activity, percent of control [%] (CDK17): 70.9%
21c Remaining activity, percent of control [%] (PRK1): 91.8%
21c Remaining activity, percent of control [%] (IRAK4): 87.3%
21c Remaining activity, percent of control [%] (ITK): 99.7%
21c Remaining activity, percent of control [%] (INSRR): 96.5%
21c Remaining activity, percent of control [%] (MST1): 105.6%
21c Remaining activity, percent of control [%] (GSK3B): 81.4%
21c Remaining activity, percent of control [%] (MATK): 78.6%
21c Remaining activity, percent of control [%] (MINK1): 70.0%
Structure (SMILES): O=C1NCCCCCNc2nc(c3ccccc3n2)Nc2cc1[nH]n2 [21c, (Z)-3^1H-2,5,11-triaza-1(4,2)-quinazolina-3(3,5)-pyrazolacycloundecaphan-4-one]
21c Remaining activity, percent of control [%] (NEK9): 109.8%
